Reference: EP3466419B1, “USE OF TRIMETHOXYBENZYL ACETYLSINAPATE, ADVANTAGEOUSLY IN COMBINATION WITH AT LEAST ONE SUNSCREEN, FOR PROTECTING THE SKIN” (Thorel, Jean-Noël, priority 2017, dated 2019)

Tested on: Nrf2
Assay: Induction of the Nrf2 pathway, luciferase reporter assay in the « ARE Reporter-HepG2 » cell model
Type: cell-based
Details: 18 hours of contact, relative to solvent control cells
Protocol: Le but de l'étude est d'évaluer l'induction de la voie Nrf2 dans le modèle cellulaire « ARE Reporter-HepG2 » (HepG2; BPS BIOSCIENCE) [Lee et al., (2004), Dinkova-Kostova et al., (2002)] par l'actif visé dans l'invention.
En parallèle du test de cytotoxicité, des cellules HepG2 ont été également ensemencées dans des puits de plaques à 96 puits (plaques opaques avec fond transparent) à raison de 40 000 cellules/puits (volume de 100 µL), en milieu M1.
Seuls les 60 puits centraux des plaques ont été utilisés, les puits restants n'ont reçu que du PBS.
Après adhésion des cellules, le milieu de culture M1 a été enlevé. Les cellules ont été traitées (volume final: 50 µL) avec le produit à l'essai, dilué dans le milieu de culture M1 (n=3/concentration à tester, 1 concentration/produit), pendant 18 heures. […]
Les puits « sans cellules » ont servi à la détection de la luminescence liée au bruit de fond du milieu. Les puits « cellules témoins » ont servi à la détection de la luminescence intrinsèque du système d'essais (sans activation). […]
A la fin de la période d'incubation (18 heures à 37°C, 5 % de CO2), les cellules ont été lysées par ajout de 100 µL du réactif « One-step luciferase assay system ». La luminescence émise par la luciférase néo-synthétisée a été évaluée avec un luminomètre Optima. […]

## COc1cc(COC(=O)/C=C/c2cc(OC)c(OC(C)=O)c(OC)c2)cc(OC)c1OC [trimethoxybenzyl acetylsinapate, 3-[4-(acetyloxy)-3,5-dimethoxyphenyl] -(3,4,5-trimethoxyphenyl)methyl ester-(2E)-Propenoic acid]
Dose 0,00125 %, read-out: taux d'activation de Nrf2
  activity at 0.00125 %: 164%

## C[S+]([O-])CCCCN=C=S (centres unmarked) [sulforaphane]
Homo sapiens, HepG2, 3 µM, read-out: luminescence émise par les cellules HepG2 traitées, en comparaison au témoin solvant (activation de Nrf2)
  activity at 3 µM: 438%
